Holding throughout (format): cell-based
The subject of assay [1] is Mannheimia haemolytica MH 6357 (M7/2, reference strain, cattle infection strain). The experiment in a line: MIC, broth-microdilution (CLSI VET01-A4), strain MH 6357. The settings on record: Mannheimia haemolytica strain MH 6357, broth-microdilution; unit assumed. Put shortly:
(§1)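 Growth inhibition is scored visually on a doubling dilution series. The reported MIC corresponds to the lowest concentration free of turbidity, with results assessed under CLSI VET01-S3.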
(In broth dilution the organism is exposed to a series of concentrations in liquid medium.)

Assay [2] relates to Mannheimia haemolytica MH 6374 (ATCC 33396, reference strain). Put plainly: MIC, broth-microdilution (CLSI VET01-A4), strain MH 6374. The conditions noted are these: Mannheimia haemolytica strain MH 6374, broth-microdilution; unit assumed. The method, boiled down: as §1
Assay [3] has as its system Mannheimia haemolytica MH 10720 (154, BRD field isolate). The experiment in a line: MIC, broth-microdilution (CLSI VET01-A4), strain MH 10720. The settings on record: Mannheimia haemolytica strain MH 10720, broth-microdilution; unit assumed. Put shortly:
as §1

Assay [4] has as its system Mannheimia haemolytica MH 12587 (1071, BRD field isolate, macrolide-resistance: erm+, E+). Put plainly: MIC, broth-microdilution (CLSI VET01-A4), strain MH 12587. The conditions noted are these: Mannheimia haemolytica strain MH 12587, broth-microdilution; unit assumed. Put shortly:
as §1

Assay [5] has as its system Mannheimia haemolytica MH 13065 (XB0446-6003.9, BRD field isolate). Put plainly: MIC, broth-microdilution (CLSI VET01-A4), strain MH 13065. The settings on record: Mannheimia haemolytica strain MH 13065, broth-microdilution; unit assumed. The method, boiled down: as §1
The subject of assay [6] is Mannheimia haemolytica MH 13093 (XB0472-6014.1, BRD field isolate). The experiment in a line: MIC, broth-microdilution (CLSI VET01-A4), strain MH 13093. The settings on record: Mannheimia haemolytica strain MH 13093, broth-microdilution; unit assumed. The method, boiled down:
as §1

Assay [7] relates to Pasteurella multocida PM 6267 (P 2225 (L386), reference strain, mouse infection strain). The experiment in a line: MIC, broth-microdilution (CLSI VET01-A4), strain PM 6267. The conditions noted are these: Pasteurella multocida strain PM 6267, broth-microdilution; unit assumed. The method, boiled down:
as §1

For assay [8], the system named is Pasteurella multocida PM 6391 (ATCC 43137, reference strain). Put plainly: MIC, broth-microdilution (CLSI VET01-A4), strain PM 6391. The settings on record: Pasteurella multocida strain PM 6391, broth-microdilution; unit assumed. The protocol:
For example, representative compounds were tested against ***, Mannheimia haemolytica and Pasteurella multocida, using the conventional broth-dilution assay.
The Minimum inhibitory concentrations (MIC) of compounds according to the invention for a number of veterinary bacterial pathogens were determined by the broth-microdilution method according to CLSI document VET01-A4.
Microdilution trays containing a doubling dilution series of the test compound were used for the tests. The MIC results were interpreted according to the CLSI documents VET01-S3. The lowest concentration of compound at which no visible growth (i.e. no turbidity) detected by the unaided eye was recorded as the MIC.

The subject of assay [9] is Pasteurella multocida PM 10775 (080130003051, BRD field isolate). The experiment in a line: MIC, broth-microdilution (CLSI VET01-A4), strain PM 10775. The conditions noted are these: Pasteurella multocida strain PM 10775, broth-microdilution; unit assumed. The method, boiled down: as §1
For assay [10], the system named is Pasteurella multocida PM 12080 (IV102277-0093, BRD field isolate). The experiment in a line: MIC, broth-microdilution (CLSI VET01-A4), strain PM 12080. The conditions noted are these: Pasteurella multocida strain PM 12080, broth-microdilution; unit assumed. Put shortly: as §1

Values after ≈ are worked out from the molar mass of the structure shown. Where only a bound is given, the exact number is not on record here.

The compound `CCNCc1ccc(C#Cc2ccc(C(=O)N[C@@H](CO)C(=O)NO)cc2)cc1` [Compound 151] registered an MIC MH 6357 in assay [1] of 6.3 µg/mL (≈ 16.5 µM). The compound also registered an MIC MH 6374 in assay [2] of 25 µg/mL (≈ 65.5 µM). In [3], this compound showed an MIC MH 10720 of 3.1 µg/mL (≈ 8.13 µM). In [4], this compound had an MIC MH 12587 of 25 µg/mL (≈ 65.5 µM). The compound further registered an MIC MH 13065 in [5] of 12.5 µg/mL (≈ 32.8 µM). The compound further had an MIC MH 13093 in assay [6] of 25 µg/mL (≈ 65.5 µM). In assay [7], this compound had an MIC PM 6267 of 3.1 µg/mL (≈ 8.13 µM). This compound also gave an MIC PM 6391 in [8] of 12.5 µg/mL (≈ 32.8 µM). The MIC PM 10775 in assay [9] was not above 0.1 µg/mL. In assay [10], this compound registered an MIC PM 12080 of 6.3 µg/mL (≈ 16.5 µM).
`CCCNCc1ccc(C#Cc2ccc(C(=O)N[C@@H](CO)C(=O)NO)cc2)cc1` [Compound 152] returned an MIC MH 6357 in [1] of 3.1 µg/mL (≈ 7.84 µM). The compound further showed an MIC MH 6374 in assay [2] of 25 µg/mL (≈ 63.2 µM). The compound also returned an MIC MH 10720 in assay [3] of 3.1 µg/mL (≈ 7.84 µM). The MIC MH 12587 in assay [4] worked out at 12.5 µg/mL (≈ 31.6 µM). In addition, the MIC MH 13065 in assay [5] was 12.5 µg/mL (≈ 31.6 µM). Also, the MIC MH 13093 in assay [6] was found to be 12.5 µg/mL (≈ 31.6 µM). In assay [7], this compound gave an MIC PM 6267 of 1.6 µg/mL (≈ 4.05 µM). In assay [8], this compound yielded an MIC PM 6391 of 6.3 µg/mL (≈ 15.9 µM). This compound came in with an MIC PM 10775 in assay [9] of 0.2 µg/mL (≈ 0.506 µM). This compound also displayed an MIC PM 12080 in assay [10] of 3.1 µg/mL (≈ 7.84 µM).
On to `COCCCNCc1ccc(C#Cc2ccc(C(=O)N[C@@H](CO)C(=O)NO)cc2)cc1` [Compound 153], for which the MIC MH 6357 in [1] turned out to be 12.5 µg/mL (≈ 29.4 µM). This compound displayed an MIC MH 6374 in [2] of 25 µg/mL (≈ 58.8 µM). In addition, the MIC MH 10720 in [3] turned out to be 6.3 µg/mL (≈ 14.8 µM). The MIC MH 12587 in assay [4] turned out to be 25 µg/mL (≈ 58.8 µM). The same compound yielded an MIC MH 13065 in assay [5] of 12.5 µg/mL (≈ 29.4 µM). The same compound returned an MIC MH 13093 in [6] of 25 µg/mL (≈ 58.8 µM). This compound registered an MIC PM 6267 in assay [7] of 1.6 µg/mL (≈ 3.76 µM). Besides, in assay [8], the MIC PM 6391 was 6.3 µg/mL (≈ 14.8 µM). For the same compound, in assay [9], the MIC PM 10775 is not above 0.1 µg/mL. In assay [10], this compound registered an MIC PM 12080 of 0.8 µg/mL (≈ 1.88 µM).
As for `COCCN(C)Cc1ccc(C#Cc2ccc(C(=O)N[C@@H](CO)C(=O)NO)cc2)cc1` [Compound 154], the MIC MH 6357 in assay [1] worked out at 3.1 µg/mL (≈ 7.29 µM). In addition, the MIC MH 6374 in [2] was 12.5 µg/mL (≈ 29.4 µM). Moreover, the MIC MH 10720 in assay [3] worked out at 1.6 µg/mL (≈ 3.76 µM). The same compound showed an MIC MH 12587 in assay [4] of 12.5 µg/mL (≈ 29.4 µM). In addition, the MIC MH 13065 in assay [5] amounted to 6.3 µg/mL (≈ 14.8 µM). In assay [6], this compound showed an MIC MH 13093 of 6.3 µg/mL (≈ 14.8 µM). The MIC PM 6267 in assay [7] is 0.2 µg/mL (≈ 0.47 µM). The compound also returned an MIC PM 6391 in assay [8] of 1.6 µg/mL (≈ 3.76 µM). Further, in [9], the MIC PM 10775 was not above 0.1 µg/mL. Moreover, the MIC PM 12080 in assay [10] was 0.8 µg/mL (≈ 1.88 µM).
In turn, `CC1CN(Cc2ccc(C#Cc3ccc(C(=O)N[C@@H](CO)C(=O)NO)cc3)cc2)CC(C)O1` (some centres unmarked) [Compound 155] displayed an MIC MH 6357 in [1] of 12.5 µg/mL (≈ 27.7 µM). Further, the MIC MH 6374 in assay [2] amounted to 12.5 µg/mL (≈ 27.7 µM). In assay [3], this compound yielded an MIC MH 10720 of 1.6 µg/mL (≈ 3.54 µM). In addition, the MIC MH 12587 in [4] was determined as 25 µg/mL (≈ 55.4 µM). For the same compound, the MIC MH 13065 in assay [5] was 12.5 µg/mL (≈ 27.7 µM). The compound further yielded an MIC MH 13093 in [6] of 25 µg/mL (≈ 55.4 µM). The compound also returned an MIC PM 6267 in assay [7] not above 0.1 µg/mL. Moreover, the MIC PM 6391 in assay [8] stood at 0.4 µg/mL (≈ 0.886 µM). Further, the MIC PM 10775 in assay [9] is not above 0.1 µg/mL. In assay [10], this compound displayed an MIC PM 12080 of 0.4 µg/mL (≈ 0.886 µM).
The compound `O=C(N[C@@H](CO)C(=O)NO)c1ccc(C#Cc2ccc(CN3CCCCC3)cc2)cc1` [Compound 156] returned an MIC MH 6357 in [1] of 6.3 µg/mL (≈ 14.9 µM). Also, in [2], the MIC MH 6374 was 6.3 µg/mL (≈ 14.9 µM). Besides, the MIC MH 10720 in assay [3] was 1.6 µg/mL (≈ 3.8 µM). The same compound gave an MIC MH 12587 in assay [4] of 12.5 µg/mL (≈ 29.7 µM). This compound also had an MIC MH 13065 in [5] of 12.5 µg/mL (≈ 29.7 µM). For the same compound, the MIC MH 13093 in [6] was 12.5 µg/mL (≈ 29.7 µM). Besides, the MIC PM 6267 in assay [7] was 0.8 µg/mL (≈ 1.9 µM). This compound also displayed an MIC PM 6391 in [8] of 1.6 µg/mL (≈ 3.8 µM). In assay [9], this compound showed an MIC PM 10775 not above 0.1 µg/mL. Moreover, in [10], the MIC PM 12080 came out at 1.6 µg/mL (≈ 3.8 µM).
In [1], `O=C(N[C@@H](CO)C(=O)NO)c1ccc(C#Cc2ccc(CNCc3cccnc3)cc2)cc1` [Compound 157] registered an MIC MH 6357 of 1.6 µg/mL (≈ 3.6 µM). For the same compound, the MIC MH 6374 in [2] amounted to 1.6 µg/mL (≈ 3.6 µM). In [3], this compound yielded an MIC MH 10720 of 0.8 µg/mL (≈ 1.8 µM). The same compound yielded an MIC MH 12587 in assay [4] of 6.3 µg/mL (≈ 14.2 µM). The MIC MH 13065 in [5] was 3.1 µg/mL (≈ 6.97 µM). Also, the MIC MH 13093 in [6] came to 6.3 µg/mL (≈ 14.2 µM). In addition, in assay [7], the MIC PM 6267 is 0.4 µg/mL (≈ 0.9 µM). This compound also displayed an MIC PM 6391 in [8] of 0.8 µg/mL (≈ 1.8 µM). Moreover, the MIC PM 10775 in [9] is not above 0.1 µg/mL. The MIC PM 12080 in assay [10] came to 0.8 µg/mL (≈ 1.8 µM).
The compound `O=C(N[C@@H](CO)C(=O)NO)c1ccc(C#Cc2ccc(CNCc3ccccn3)cc2)cc1` [Compound 158] yielded an MIC MH 6357 in assay [1] of 1.6 µg/mL (≈ 3.6 µM). In [2], this compound gave an MIC MH 6374 of 3.1 µg/mL (≈ 6.97 µM). In addition, the MIC MH 10720 in assay [3] amounted to 0.8 µg/mL (≈ 1.8 µM). The same compound displayed an MIC MH 12587 in assay [4] of 6.3 µg/mL (≈ 14.2 µM). The MIC MH 13065 in assay [5] came to 6.3 µg/mL (≈ 14.2 µM). The MIC MH 13093 in assay [6] came out at 6.3 µg/mL (≈ 14.2 µM). Besides, in [7], the MIC PM 6267 stood at 0.4 µg/mL (≈ 0.9 µM). In addition, the MIC PM 6391 in [8] came to 0.8 µg/mL (≈ 1.8 µM). The compound also displayed an MIC PM 10775 in [9] not above 0.1 µg/mL. Moreover, in assay [10], the MIC PM 12080 was determined as 0.8 µg/mL (≈ 1.8 µM).

These data come from US11034650B2, “Compounds useful for treating a Mannheimia haemolytica or Histophilus somni infection” (Intervet Inc., priority 2016, dated 2021).
